# Data published in ChEMBL document CHEMBL6083254, “Optimization of B-Ring-Functionalized Antimalarial Tambjamines and Prodiginines” (J Med Chem, 2024).
# The source made the active and inactive calls. No cut-off for these calls is given here.
# Key:
# [1] = Metabolic stability in mouse liver microsomes assessed as intrinsic clearance measured upto 60 mins LC-MS analysis
# [2] = AUC (0 to infinity) in ICR-CD1 mouse liver at 40 mg/kg, po; format: ADME, organism-based
# [3] = AUClast in ICR-CD1 mouse liver at 40 mg/kg, po; format: ADME, organism-based
# [4] = Tmax in ICR-CD1 mouse plasma at 40 mg/kg, po; format: ADME, organism-based
# [5] = target: T1, Voltage-gated inwardly rectifying potassium channel KCNH2 (Homo sapiens, UniProt Q12809); assay: Inhibition of hERG expressed in CHO-K1 cells at 2.5 uM relative to control; format: toxicity, cell-based; conditions: cho-k1, 2.5 µM
# T1 sequence (Q12809 whole entry): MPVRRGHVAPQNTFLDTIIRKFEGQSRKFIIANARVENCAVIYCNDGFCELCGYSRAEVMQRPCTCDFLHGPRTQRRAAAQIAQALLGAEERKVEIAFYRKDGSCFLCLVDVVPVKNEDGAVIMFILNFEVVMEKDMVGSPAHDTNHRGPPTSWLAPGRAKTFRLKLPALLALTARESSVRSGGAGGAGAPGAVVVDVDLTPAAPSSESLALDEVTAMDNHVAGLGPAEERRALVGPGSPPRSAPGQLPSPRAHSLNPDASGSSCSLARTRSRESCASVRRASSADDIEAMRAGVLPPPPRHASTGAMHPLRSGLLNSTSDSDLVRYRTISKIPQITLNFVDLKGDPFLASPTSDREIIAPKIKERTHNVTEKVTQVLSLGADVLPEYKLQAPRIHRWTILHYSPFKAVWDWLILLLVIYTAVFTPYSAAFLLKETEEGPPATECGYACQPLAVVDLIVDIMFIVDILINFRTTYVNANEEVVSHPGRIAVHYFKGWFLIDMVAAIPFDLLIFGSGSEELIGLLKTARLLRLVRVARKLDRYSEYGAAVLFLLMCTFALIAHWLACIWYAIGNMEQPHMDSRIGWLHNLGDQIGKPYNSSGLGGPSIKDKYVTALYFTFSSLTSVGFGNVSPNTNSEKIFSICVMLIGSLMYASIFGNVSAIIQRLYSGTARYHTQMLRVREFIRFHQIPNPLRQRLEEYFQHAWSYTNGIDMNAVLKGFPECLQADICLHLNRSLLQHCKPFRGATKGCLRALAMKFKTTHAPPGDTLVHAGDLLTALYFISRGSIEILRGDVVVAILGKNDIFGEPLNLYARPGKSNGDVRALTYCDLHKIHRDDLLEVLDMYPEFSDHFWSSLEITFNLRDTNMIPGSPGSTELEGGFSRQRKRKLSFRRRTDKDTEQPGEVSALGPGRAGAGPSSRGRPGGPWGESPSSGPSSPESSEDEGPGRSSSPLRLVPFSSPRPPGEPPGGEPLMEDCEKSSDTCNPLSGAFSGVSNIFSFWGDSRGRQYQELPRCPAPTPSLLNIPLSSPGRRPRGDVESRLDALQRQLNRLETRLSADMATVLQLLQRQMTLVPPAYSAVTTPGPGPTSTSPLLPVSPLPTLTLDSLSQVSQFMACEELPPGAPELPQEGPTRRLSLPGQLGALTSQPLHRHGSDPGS
# [6] = Metabolic stability in human liver microsomes assessed as half life measured upto 60 mins LC-MS analysis
# Plasmodium falciparum [7] = assay: microbe, parasite or virus in culture; conditions: Dd2, 72 h
# [8] = Cmax in ICR-CD1 mouse liver at 40 mg/kg, po; format: ADME, organism-based
# [9] = target: T1, Voltage-gated inwardly rectifying potassium channel KCNH2; assay: Inhibition of hERG expressed in CHO-K1 cells at 10 uM relative to control; format: toxicity, cell-based; conditions: cho-k1, 10 µM
# [10] = Metabolic stability in human liver microsomes assessed as intrinsic clearance measured upto 60 mins LC-MS analysis
# Plasmodium yoelii [11] = assay: Antiplasmodial activity against asexual erythrocytic stage of Plasmodium yoelii infected in female CFI mouse model assessed as reduction in parasitemia at 10 mg/kg, po administered once daily for 4 days and measured on day 5 by Giemsa staining based microscopic analysis relative to control; format: functional; design: scale not given: the % may be the effect or the level left; conditions: time 5 day
# in vitro = conditions: human
# Description: Selectivity index, ratio of IC50 for cytotoxicity against human HepG2 cells assessed as cell viability to IC50 for antiplasmodial activity against asexual erythrocytic stage of Plasmodium falciparum D6 assessed as inhibition of parasitic growth incubated
# [12] = %AUCextra in ICR-CD1 mouse plasma at 40 mg/kg, po; format: ADME, organism-based; conditions: in vivo
# [13] = Mutagenicity in Salmonella typhimurium TA100 at 10 uM in absence of S9 fraction incubated for 5 days by AMES assay; format: toxicity; conditions: salmonella enterica subsp. enterica serovar typhimurium, s9, 120 h, time 5 day
# [14] = Half life in ICR-CD1 mouse plasma at 40 mg/kg, po; format: ADME, organism-based
# [15] = Mutagenicity in Salmonella typhimurium TA100 at 10 uM in presence of S9 fraction incubated for 5 days by AMES assay; format: toxicity, subcellular; conditions: salmonella enterica subsp. enterica serovar typhimurium, s9, 120 h, time 5 day
# Plasmodium yoelii [16] = assay: Antiplasmodial activity against asexual erythrocytic stage of Plasmodium yoelii infected in po dosed female CFI mouse model assessed as reduction in parasitemia administered once daily for 4 days and measured on day 5 by Giemsa staining based microscopic analysis; format: functional; conditions: 120 h, time 5 day
# HepG2 = assay: Cytotoxicity against human HepG2 cells assessed as cell viability incubated for 72 hrs by MTT assay; format: toxicity, cell-based; conditions: hepg2
# Plasmodium berghei [17] = assay: Antimalarial activity against blood-stage Plasmodium berghei sporozoites ANKA expressing GFP infected in po dosed female Albino C57BL/6 mouse assessed as reduction in parasite load measured after 72 hrs by flow cytometry analysis; format: functional, organism-based; conditions: dose 20-40 mg/kg
# [18] = target: T1, Voltage-gated inwardly rectifying potassium channel KCNH2; assay: Inhibition of hERG expressed in CHO-K1 cells at 0.625 uM relative to control; format: toxicity, cell-based; conditions: cho-k1, 0.625 µM
# Plasmodium yoelii [19] = assay: Antiplasmodial activity against asexual erythrocytic stage of Plasmodium yoelii infected in female CFI mouse model at 25 mg/kg, po administered once daily for 4 days and measured on day 5 by Giemsa staining based microscopic analysis; format: functional, organism-based; conditions: time 5.0 day
# [20] = target: T1, Voltage-gated inwardly rectifying potassium channel KCNH2; assay: Inhibition of hERG expressed in CHO-K1 cells at 1.25 uM relative to control; format: toxicity, cell-based; conditions: cho-k1, 1.25 µM
# Plasmodium berghei [21] = assay: Antimalarial activity against liver-stage Plasmodium berghei sporozoites ANKA expressing GFP infected in po dosed female Albino C57BL/6 mouse assessed as reduction in parasite load measured after 24 to 48 hrs by IVIS imaging analysis; format: functional, organism-based; conditions: dose 20-40 mg/kg, time 24-48 hrs
# Plasmodium berghei [22] = assay: Antimalarial activity against liver-stage Plasmodium berghei sporozoites ANKA expressing GFP infected female Albino C57BL/6 mouse assessed as reduction in parasite growth at 40 mg/kg, po measured at 48 hrs by IVIS imaging analysis; format: functional; design: scale not given: the % may be the effect or the level left
# Plasmodium yoelii [23] = assay: Antiplasmodial activity against asexual erythrocytic stage of Plasmodium yoelii infected in female CFI mouse model assessed as reduction in parasitemia at 1 mg/kg, po administered once daily for 4 days and measured on day 5 by Giemsa staining based microscopic analysis relative to control; format: functional; design: scale not given: the % may be the effect or the level left; conditions: time 5 day
# [24] = Half life in ICR-CD1 mouse liver at 40 mg/kg, po; format: ADME, organism-based
# [25] = %AUCextra in ICR-CD1 mouse liver at 40 mg/kg, po; format: ADME, organism-based; conditions: in vivo
# [26] = Mutagenicity in Salmonella typhimurium TA98 at 10 uM in presence of S9 fraction incubated for 5 days by AMES assay; format: toxicity, subcellular; conditions: salmonella enterica subsp. enterica serovar typhimurium, s9, 120 h, time 5 day
# [27] = Mutagenicity in Salmonella typhimurium TA98 at 10 uM in absence of S9 fraction incubated for 5 days by AMES assay; format: toxicity; conditions: salmonella enterica subsp. enterica serovar typhimurium, s9, 120 h, time 5 day
# [28] = Apparent oral clearance in ICR-CD1 mouse liver at 40 mg/kg, po; format: ADME, organism-based
# Plasmodium berghei [29] = assay: Antimalarial activity against liver-stage Plasmodium berghei sporozoites ANKA expressing GFP infected female Albino C57BL/6 mouse assessed as reduction in parasite growth at 40 mg/kg, po measured at 72 hrs by IVIS imaging analysis; format: functional; design: scale not given: the % may be the effect or the level left
# [30] = Aqueous solubility of compound in PBS buffer at pH 7.4 incubated for 90 mins by UV-vis spectroscopic analysis; conditions: pH 7.4, 1.5 h
# [31] = MRTlast in ICR-CD1 mouse plasma at 40 mg/kg, po; format: ADME, organism-based
# Plasmodium falciparum [32] = assay: microbe, parasite or virus in culture; conditions: Tm90-C2B, 72 h
# Plasmodium falciparum [33] = assay: microbe, parasite or virus in culture; conditions: D6, 72 h
# [34] = Tmax in ICR-CD1 mouse liver at 40 mg/kg, po; format: ADME, organism-based
# [35] = Cmax in ICR-CD1 mouse plasma at 40 mg/kg, po; format: ADME, organism-based
# [36] = Metabolic stability in mouse liver microsomes assessed as half life measured upto 60 mins LC-MS analysis
# [37] = Apparent oral clearance in ICR-CD1 mouse plasma at 40 mg/kg, po; format: ADME, organism-based; conditions: in vivo
# [38] = AUClast in ICR-CD1 mouse plasma at 40 mg/kg, po; format: ADME, organism-based
# [39] = MRTlast in ICR-CD1 mouse liver at 40 mg/kg, po; format: ADME, organism-based
# [40] = target: T1, Voltage-gated inwardly rectifying potassium channel KCNH2; assay: Inhibition of hERG expressed in CHO-K1 cells at 5 uM relative to control; format: toxicity, cell-based; conditions: cho-k1, 5 µM
# [41] = AUC (0 to infinity) in ICR-CD1 mouse plasma at 40 mg/kg, po; format: ADME, organism-based; conditions: in vivo
# [42] = target: T1, Voltage-gated inwardly rectifying potassium channel KCNH2; assay: Inhibition of hERG expressed in CHO-K1 cells at 0.313 uM relative to control; format: toxicity, cell-based; conditions: cho-k1, 0.313 µM
compound,measurement,setting,value
CCCCCc1cc(/C=C2\N=C(c3ccc[nH]3)C=C2Oc2ccccc2)[nH]c1C.Cl,microsomal CLint at 1 h,[1],25.2 µL/min/mg
same,AUC(0-inf),[2],32000 ng·h/mL
same,AUC(0-t),[3],31900 ng·h/mL
same,Tmax,[4],30 h
same,inhibition (INH),[5],10.3%
same,half-life at 1 h,[6],> 60 min
same,IC50,Plasmodium falciparum [7],3.87 nM
same,Cmax,[8],1130 ng/mL
same,inhibition (INH),[9],17.5%
same,microsomal CLint at 1 h,[10],4.02 µL/min/mg
same,Activity,Plasmodium yoelii [11],100%
same,selectivity ratio,in vitro,884
same,%AUCextra,[12],0.426%
same,Activity,[13],Non-toxic
same,half-life,[14],385 min
same,Activity,[15],Non-toxic
same,ED50,"Plasmodium yoelii [16]; Plasmodium yoelii, po, read-out: ED50",0.99 mg/kg/day
same,ED50,Plasmodium yoelii [16],1.11 mg/kg/day
same,IC50,HepG2,6.26 µM
same,Activity,Plasmodium berghei [17],Dose-dependent-effect
same,inhibition (INH),[18],7.31%
same,Activity,Plasmodium yoelii [19],Active
same,inhibition (INH),[20],9.85%
same,Activity,Plasmodium berghei [21],Dose-dependent-effect
same,Activity,Plasmodium berghei [22],43%
same,Activity,Plasmodium yoelii [23],54.6%
same,half-life,[24],302 min
same,%AUCextra,[25],0.267%
same,Activity,[26],Non-toxic
same,Activity,[27],Non-toxic
same,CL/F,[28],0.615 mL/min/kg
same,Activity,Plasmodium berghei [29],74%
same,solubility,[30],< 3.125 µM
same,MRT last,[31],28.3 h
same,IC50,Plasmodium falciparum [32],8.74 nM
same,IC50,Plasmodium falciparum [33],7.08 nM
same,Tmax,[34],24 h
same,Cmax,[35],199 ng/mL
same,half-life at 1 h,[36],54.9 min
same,CL/F,[37],199 mL/h/kg
same,AUC(0-t),[38],5950 ng·h/mL
same,MRT last,[39],29.1 h
same,inhibition (INH),[40],10.3%
same,AUC,[41],5974 ng·h/mL
same,inhibition (INH),[42],0.24%
